Experimental findings from ChEMBL document CHEMBL1142859, “Synthesis and characterization of a platinum(II) complex tethered to a ligand of the peripheral benzodiazepine receptor” (J Med Chem, 2007) are described below.

One may read the IC50 as the concentration that gives 50% inhibition.

Molecules are shown by their SMILES.

The assay addresses Translocator protein (Rattus norvegicus, UniProt P16257). In words: Displacement of [3H]PK 11195 from PBR in Sprague-Dawley rat cerebral cortex. Type of assay: tissue-based. A general note: Displacement assays read how much labelled ligand stays bound in the presence of the test substance.

Translocator protein, sequence (P16257 whole entry, looked up): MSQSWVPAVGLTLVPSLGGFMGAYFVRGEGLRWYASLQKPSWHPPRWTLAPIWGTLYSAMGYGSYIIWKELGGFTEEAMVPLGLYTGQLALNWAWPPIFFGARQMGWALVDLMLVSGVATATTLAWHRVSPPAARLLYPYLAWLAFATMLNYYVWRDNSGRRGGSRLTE

`CCCN(CCC)C(=O)Cc1c(-c2nccs2)nc2c(Cl)cc(Cl)cn12` yielded an IC50 of 2.81 nM.
